Results as given in publication PMC7914897, “Cytotoxic Potential of a-Azepano- and 3-Amino-3,4-SeCo-Triterpenoids” (International Journal of Molecular Sciences, 2021).
Where two headings read alike, the source gives them in different places.

What was measured:
Leukemia subpanel = assay: cells; details: Homo sapiens
OVCAR-3 (Ovarian cancer) = assay: cells; details: Homo sapiens, OVCAR-3
Renal Cancer subpanel = assay: NCI-60 screen, subpanel; details: Homo sapiens
[1] = tested on: A549/ATCC (NSC lung cancer); assay: NCI-60 screen (SRB, 48 h); details: Homo sapiens
HOP-62 (NSC lung cancer) = assay: NCI-60 screen (SRB, 48 h); details: Homo sapiens
[2] = tested on: NCI-H226 (NSC lung cancer); assay: NCI-60 screen (SRB, 48 h); details: Homo sapiens
[3] = tested on: NCI-H23 (NSC lung cancer); assay: NCI-60 screen (SRB, 48 h); details: Homo sapiens, NCI-H23
[4] = tested on: NCI-H322M (NSC lung cancer); assay: NCI-60 screen (SRB, 48 h); details: Homo sapiens
[5] = tested on: NCI-H522 (NSC lung cancer); assay: NCI-60 screen (SRB, 48 h); details: Homo sapiens
COLO 205 (Colon cancer) = assay: NCI-60 screen (SRB, 48 h); details: Homo sapiens
HCC-2998 (Colon cancer) = assay: NCI-60 screen (SRB, 48 h); details: Homo sapiens, HCC 2998
HCT-15 (Colon cancer) = assay: NCI-60 screen (SRB, 48 h); details: Homo sapiens, HCT-15
SF-268 (CNS cancer) = assay: NCI-60 screen (SRB, 48 h); details: Homo sapiens
SNB-19 (CNS cancer) = assay: NCI-60 screen (SRB, 48 h); details: Homo sapiens
SK-MEL-5 (Melanoma) = assay: NCI-60 screen (SRB, 48 h); details: Homo sapiens
UACC-257 (Melanoma) = assay: NCI-60 screen (SRB, 48 h); details: Homo sapiens
UACC-62 (Melanoma) = assay: NCI-60 screen (SRB, 48 h); details: Homo sapiens
IGROV1 (Ovarian cancer) = assay: NCI-60 screen (SRB, 48 h)
OVCAR-5 (Ovarian cancer) = assay: NCI-60 screen (SRB, 48 h)
OVCAR-8 (Ovarian cancer) = assay: NCI-60 screen (SRB, 48 h); details: Homo sapiens
CAKI-1 (Renal cancer) = assay: NCI-60 screen (SRB, 48 h); details: Homo sapiens
TK-10 (Renal cancer) = assay: NCI-60 screen (SRB, 48 h); details: Homo sapiens
PC-3 (Prostate cancer) = assay: NCI-60 screen (SRB, 48 h); details: Homo sapiens
DU-145 (Prostate cancer) = assay: NCI-60 screen (SRB, 48 h); details: Homo sapiens
[6] = tested on: MDA-MB-31/ATCC (Breast cancer); assay: NCI-60 screen (SRB, 48 h); details: Homo sapiens
HS 578T (Breast cancer) = assay: NCI-60 screen (SRB, 48 h); details: Homo sapiens
[7] = tested on: panel of approximately 60 cancer cell lines; assay: NCI-60 screen (SRB, 48 h), full panel

`C=C(C)[C@@H]1CC[C@]2(COS(=O)(=O)c3ccc(C)cc3)CC[C@]3(C)[C@@H](CC[C@@H]4[C@@]5(C)CCCNC(C)(C)[C@@H]5CC[C@]43C)[C@@H]12` [Compound 12] was tested, and the IC (TGI) (Leukemia subpanel; 48 h, read-out: TGI MG_MID) was 4060 nM, the GI50 (Leukemia subpanel; read-out: GI50 MG_MID) was 1830 nM and the CC50 (Leukemia subpanel; read-out: LC50 MG_MID) was greater than 100000 nM. It also gave a GI50 (OVCAR-3 (Ovarian cancer)) of 1670 nM, an IC (TGI) (Renal Cancer subpanel; 48 h, read-out: TGI MG_MID) of 3260 nM and a GI50 (Renal Cancer subpanel; read-out: GI50 MG_MID) of 1760 nM. For the same compound, the CC50 (Renal Cancer subpanel; read-out: LC50 MG_MID) was 5870 nM, the GI50 ([1]; A549) was 1870 nM and the IC (TGI) ([1]; A549, 48 h, read-out: TGI) was 3500 nM. It also gave a GI50 (HOP-62 (NSC lung cancer); HOP-62) of 1650 nM, an IC (TGI) (HOP-62 (NSC lung cancer); HOP-62, 48 h, read-out: TGI) of 3130 nM and a GI50 ([2]; NCI-H226) of 1810 nM. The IC (TGI) ([2]; NCI-H226, 48 h, read-out: TGI) was 3630 nM, the GI50 [3] was 1750 nM and the GI50 [4] was 1760 nM. It also gave an IC (TGI) ([4]; 48 h, read-out: TGI) of 3160 nM, a GI50 ([5]; NCI-H522) of 1700 nM and an IC (TGI) ([5]; NCI-H522, 48 h, read-out: TGI) of 3230 nM. It also gave a GI50 (COLO 205 (Colon cancer); COLO 205) of 1750 nM, an IC (TGI) (COLO 205 (Colon cancer); COLO 205, 48 h, read-out: TGI) of 3240 nM and a GI50 (HCC-2998 (Colon cancer)) of 1580 nM. It also gave a GI50 (HCT-15 (Colon cancer)) of 1380 nM, a GI50 (SF-268 (CNS cancer); SF-268) of 1880 nM and an IC (TGI) (SF-268 (CNS cancer); SF-268, 48 h, read-out: TGI) of 3790 nM. For the same compound, the GI50 (SNB-19 (CNS cancer); SNB-19) was 2040 nM, the IC (TGI) (SNB-19 (CNS cancer); SNB-19, 48 h, read-out: TGI) was 3680 nM and the GI50 (SK-MEL-5 (Melanoma); SK-MEL-5) was 1670 nM. The IC (TGI) (SK-MEL-5 (Melanoma); SK-MEL-5, 48 h, read-out: TGI) was 3080 nM, the GI50 (UACC-257 (Melanoma); UACC-257) was 1970 nM and the IC (TGI) (UACC-257 (Melanoma); UACC-257, 48 h, read-out: TGI) was 3650 nM. The GI50 (UACC-62 (Melanoma); UACC-62) was 2050 nM, the IC (TGI) (UACC-62 (Melanoma); UACC-62, 48 h, read-out: TGI) was 3640 nM and the GI50 (IGROV1 (Ovarian cancer); Homo sapiens, IGROV-1) was 1840 nM. For the same compound, the “Growth % of the Most Sensitive Cell Lines” value (IGROV1 (Ovarian cancer); IGROV1, 1 dose 10 µM) was −87.10%, the GI50 (OVCAR-5 (Ovarian cancer); Homo sapiens, OVCAR-5) was 1640 nM and the IC (TGI) (OVCAR-5 (Ovarian cancer); Homo sapiens, OVCAR-5, 48 h, read-out: TGI) was 3130 nM. For the same compound, the “Growth % of the Most Sensitive Cell Lines” value (OVCAR-5 (Ovarian cancer); OVCAR-5, 1 dose 10 µM) was −87.72%, the GI50 (OVCAR-8 (Ovarian cancer); OVCAR-8) was 1910 nM and the IC (TGI) (OVCAR-8 (Ovarian cancer); OVCAR-8, 48 h, read-out: TGI) was 3650 nM. The GI50 (CAKI-1 (Renal cancer); CAKI-1) was 1740 nM, the IC (TGI) (CAKI-1 (Renal cancer); CAKI-1, 48 h, read-out: TGI) was 3150 nM and the CC50 (CAKI-1 (Renal cancer); CAKI-1, read-out: LC50) was 5710 nM. The GI50 (TK-10 (Renal cancer); TK-10) was 1660 nM, the IC (TGI) (TK-10 (Renal cancer); TK-10, 48 h, read-out: TGI) was 3230 nM and the GI50 (PC-3 (Prostate cancer); PC-3) was 1580 nM. For the same compound, the IC (TGI) (PC-3 (Prostate cancer); PC-3, 48 h, read-out: TGI) was 3000 nM, the GI50 (DU-145 (Prostate cancer); DU-145) was 1770 nM and the IC (TGI) (DU-145 (Prostate cancer); DU-145, 48 h, read-out: TGI) was 3300 nM. For the same compound, the GI50 [6] was 1880 nM, the GI50 (HS 578T (Breast cancer)) was 1790 nM and the IC (TGI) (HS 578T (Breast cancer); 48 h, read-out: TGI) was 3940 nM. For the same compound, the “Positive Cytostatic Effect (cell lines with percent growth 0 to 50 / total)” value ([7]; 1 dose 10 µM) was 11/60, the “number of cancer cell lines the compound was active against” value ([7]; 1 dose 10 µM) was 39 cell lines and the activity at 10 µM ([7]; Homo sapiens, 48 h, read-out: Mean Growth, %) was -3.21%. The activity at 10 µM ([7]; Homo sapiens, 48 h, read-out: Range of Growth, %) was -94.4 to 98.7%, the IC (TGI) ([7]; Homo sapiens, 48 h, read-out: TGI MG_MID60, average over all cell lines) was 3430 nM and the GI50 ([7]; Homo sapiens, read-out: GI50 MG_MID60) was 1770 nM. It also gave a GI50 ([7]; Homo sapiens, read-out: GI50 against all human tumor cell lines) of less than 3000 nM and a CC50 ([7]; Homo sapiens, read-out: LC50 MG_MID60, average over all cell lines) of 5840 nM.
